Our source for the tumor growth values is patent US20230414626A1, “INDUCTION OF FERROPTOSIS FOR CANCER THERAPY” (Memorial Sloan Kettering Cancer Center, priority 2020, published 2023).

In this test the test system is PTEN-defective PC-3 prostate cancer xenograft tumors. The test can be described thus: In vivo xenograft mouse model, PC-3. To be noted: PC-3 xenograft, nu/nu mice; IKE 50 mg/kg daily i.p.; CCI-779 2 mg/kg daily i.p. The protocol: FIG. 6 A-F. Combination of mTORC1 inhibition with ferroptosis induction leads to tumor regression in vivo. (A) CRISPR/Cas9-mediated, Dox-induced GPX4 knockout (GPX4-iKO) in BT474 cells, monitored by western blot. (B) Images of resected tumors from mice xenografted with GPX4-iKO BT474 cells. Groups of mice were treated with CCI-779 and/or Dox as indicated (n=6 per group). See Methods for detail. (C) Representative haematoxylin and eosin (H&E) and immunostaining images of GPX4, Ki67, PTGS2 and pS235/236 S6, all counterstained with haematoxylin (blue), are shown from sections of xenografted tumors. Scale bar, 50 μm. (D) Growth curves of BT474 tumors of each group. Data are plotted as mean±s.d., n=6, on the linear scale for actual tumor size (upper panel) or the log 2 scale for the fold change of tumors (bottom panel). (E) Growth curves of PC-3 tumors of each group (n=6), on the linear scale for actual tumor size (upper panel) or the log 2 scale for the fold change of tumor size (bottom panel). […]
FIG. 13 A-E. Combination of mTORC1 inhibition with ferroptosis induction leads to tumor regression. […] (B) BT474 tumor volume was measured every day for each mouse. […] (E) PC-3 tumor volume was measured every day for each mouse. […]
For PC-3 tumor models, male athymic nu/nu mice aged 5 to 6 weeks were injected in the right flank with 5×10^6 PC-3 cells. Tumors were measured with callipers daily. […]

For `CC(C)Oc1ccc(C(=O)Cn2ccnc2)cc1-n1c(CN2CCN(C(=O)COc3ccc(Cl)cc3)CC2)nc2ccccc2c1=O` [IKE, imidazole ketone erastin], the tumor growth result is recorded as “no effects on tumor growth”.
